Data published in patent US20260200920A1, “SUBSTITUTED AMINOPYRIDINE COMPOUNDS FOR USE AS AKT1 INHIBITORS” (Atavistik Bio, Inc., priority 2023, published 2026).

Columns and labels:
[1] = target: T1, human recombinant kinase full-length AKT1 E17K (Homo sapiens, UniProt P31749, E17K); experiment: AKT1 E17K kinase assay (TR-FRET, Lance); type: biochemical; conditions: 0.6 nM AKT1 E17K, 50 nM Ulight-CREBtide, either 50 μM ATP or 2 mM ATP, 60 min at RT
T1 construct: Purified human recombinant kinase full-length AKT1 E17K was expressed in insect cells; made in house; host or cells: insect cells
Procedure: AKT1 E17K kinase assay: Inhibitory effects of compounds on AKT1 E17K were undertaken in a 10-pt dose response kinase activity assay measuring phospho-peptide product formation based on TR-FRET signal as described in the following paragraph.
(§1) Purified human recombinant kinase full-length AKT1 E17K was expressed in insect cells and activated in vitro by PDPK1. Ulight™-CREBtide (PerkinElmer, catalog number TRF0107) was used as the peptide substrate. The reaction buffer consisted of 50 mM HEPES pH 7.5, 10 mM MgCl2, 0.01% Triton X-100, 0.01% BSA, 2 mM DTT, 0.6 nM AKT1 E17K, 50 nM Ulight™-CREBtide and either 50 μM ATP or 2 mM ATP. The compound solution was prepared as 10 mM DMSO stock. For the assay, a 1.3 serial dilution 10-pt dose response of test compounds, in duplicate, for each concentration were dispensed into a 384-well plate (Corning, catalog number 4513). Final DMSO concentration in the assay was 1%. The enzyme mixture (5 μL, 1.2 nM) were added and the mixture was incubated for 15 min at RT prior to the start of the kinase reaction by the addition of 5 μL substrate mixture (100 nM Ulight™-CREBtide). The reaction was stopped after 60 min of incubation at RT by the addition of 10 μL of Detection Mix (PerkinElmer, #CR97-100) consisting of Europium-anti-phospho-CREB (Ser133) (Perkin Elmer, catalog number TRF0200). Incubation with the detection mix for a further 60 min allowed binding of antibody to the phospho-Ulight™ CREBtide. The fluorescence emissions at 620 nm and 665 nm after excitation at 350 nm was measured using Envision reader. The ratio of the emissions at 665 nm and at 620 nm provided the measure for the amount of phosphorylated CREBtide product of AKT1 E17K kinase activity. To determine the IC50 values, the data was normalized (enzyme reaction without inhibitor=0% inhibition, all other assay components but no enzyme=100% inhibition) and IC50 values were calculated by a 4-parameter fit using an in-house developed protocol.
Table 9 assigns each compound a code for potency in the AKT1 E 17K kinase assay: A, B, or C. According to the code, A represents an IC50 value <500 nM; B represents an IC50 value from ≥500 nM to <2000 nM; and C represents an IC50 value ≥2000 nM.

[2] = target: T2, human recombinant kinase full-length wildtype AKT1 (Homo sapiens, UniProt P31749); experiment: AKT1 kinase assay (wildtype, TR-FRET, Lance); type: biochemical; conditions: 0.6 nM wildtype AKT1, 50 nM Ulight-CREBtide, either 50 μM ATP or 2 mM ATP, 60 min at RT
T2 construct: Purified human recombinant kinase full-length wildtype AKT1 was expressed in insect cells; made in house; host or cells: insect cells
Procedure: AKT1 kinase assay: Inhibitory effects of compounds on wildtype AKT1 were undertaken in a 10-pt dose response kinase activity assay measuring phospho-peptide product formation based on TR-FRET signal as described in the following paragraph.
as §1, with “full-length wildtype” for “full-length”, “AKT1” for “AKT1 E17K”, “AKT1,50” for “AKT1 E17K, 50”, “1:3” for “1.3”
The symbol +++ represents an IC50 value <20 μM; the symbol ++ represents an IC50 value from ≥20 μM to 80 μM.

T2 sequence (P31749 whole entry): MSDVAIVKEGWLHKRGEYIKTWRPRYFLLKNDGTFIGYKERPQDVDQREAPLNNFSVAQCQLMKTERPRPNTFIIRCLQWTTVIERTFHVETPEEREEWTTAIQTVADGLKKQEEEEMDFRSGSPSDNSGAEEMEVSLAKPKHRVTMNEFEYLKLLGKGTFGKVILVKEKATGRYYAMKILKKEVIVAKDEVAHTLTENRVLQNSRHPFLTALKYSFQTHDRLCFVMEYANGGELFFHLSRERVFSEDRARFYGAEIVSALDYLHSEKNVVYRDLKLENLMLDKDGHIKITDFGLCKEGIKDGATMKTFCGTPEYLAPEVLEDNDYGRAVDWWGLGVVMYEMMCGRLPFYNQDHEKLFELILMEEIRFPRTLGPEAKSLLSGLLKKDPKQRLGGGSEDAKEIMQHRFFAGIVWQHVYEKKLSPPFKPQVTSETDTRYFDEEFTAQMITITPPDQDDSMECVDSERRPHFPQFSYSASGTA
T1 sequence (P31749 whole entry E17K): as the sequence (P31749 whole entry) above, with E17K counted along it

| SMILES | IC50 [1] [nM] | IC50 [2] [nM] |
| --- | --- | --- |
| Nc1ncccc1-c1nc2ccc(-c3ccccc3)nc2n1-c1ccc(C2CN(CC3CCC(CC(=O)O)CC3)C2)cc1 (stereo not shown) [Compound I-153] | < 500 | < 20000 |
| C[C@@H]([C@H]1CC[C@H](C(=O)O)CC1)N1CC(c2ccc(-n3c(-c4cccnc4N)nc4ccc(-c5ccccc5)nc43)cc2)C1 [Compound I-60, (1S,4r)-4-((S)-1-(3-(4-(2-(2-aminopyridin-3-yl)-5-phenyl-3H-imidazo[4,5-b]pyridin-3-yl)phenyl)azetidin-1-yl)ethyl)cyclohexane-1-carboxylic acid] | 500 to 2000 | < 20000 |
| Nc1ncccc1-c1nc2ccc(-c3ccccc3)nc2n1-c1ccc(CN2CCC(C(=O)O)CC2)c(F)c1 [Compound I-30, 1-(4-(2-(2-aminopyridin-3-yl)-5-phenyl-3H-imidazo[4,5-b]pyridin-3-yl)-2-fluorobenzyl)piperidine-4-carboxylic acid] | ≥ 2000 | < 20000 |
| Nc1ncccc1-c1nc2ccc(-c3ccccc3F)nc2n1-c1ccc(C2CN(C[C@H]3CC[C@H](C(=O)O)CC3)C2)cc1 [Compound I-213] | < 500 | < 20000 |
| CN(Cc1ccc(-n2c(-c3cccnc3N)nc3ccc(-c4ccccc4)nc32)c(F)c1)[C@H]1CC[C@@H](C(=O)O)CC1 [Compound I-165] | < 500 | < 20000 |
| Cc1nc(NC2CCC(C(=O)O)CC2)ccc1-n1c(-c2cccnc2N)nc2ccc(-c3ccccc3)nc21 (stereo not shown) [Compound I-109, 4-((5-(2-(2-aminopyridin-3-yl)-5-phenyl-3H-imidazo[4,5-b]pyridin-3-yl)-6-methylpyridin-2-yl)amino)cyclohexane-1-carboxylic acid] | 500 to 2000 | < 20000 |
| Cc1cc(C2CN(CC34CCC(C(=O)O)(CC3)CC4)C2)ccc1-n1c(-c2cccnc2N)nc2ccc(-c3ccccc3)nc21 [Compound I-206] | 500 to 2000 | < 20000 |
| CC1(C)CC(C(=O)O)CCN1Cc1ccc(-n2c(-c3cccnc3N)nc3ccc(-c4ccccc4)nc32)cc1 (stereo not shown) [Compound I-99, 1-(4-(2-(2-aminopyridin-3-yl)-5-phenyl-3H-imidazo[4,5-b]pyridin-3-yl)benzyl)-2,2-dimethylpiperidine-4-carboxylic acid] | ≥ 2000 | < 20000 |
| CC(C(=O)O)C1CCN(Cc2ccc(-n3c(-c4cccnc4N)nc4ccc(-c5ccccc5)nc43)cc2)C1 (stereo not shown) [Compound I-104, 2-[1-[[4-[2-(2-amino-3-pyridyl)-5-phenyl-imidazo[4,5-b]pyridin-3-yl]phenyl]methyl]pyrrolidin-3-yl]propanoic acid] | 500 to 2000 | < 20000 |
| Cc1cc2nc(-c3cccnc3N)n(-c3ccc(C4CN(C[C@H]5CC[C@@H](C(=O)O)CC5)C4)cc3)c2nc1-c1ccccc1 [Compound I-234, Cis-4-((3-(4-(2-(2-aminopyridin-3-yl)-6-methyl-5-phenyl-3H-imidazo[4,5-b]pyridin-3-yl)phenyl)azetidin-1-yl)methyl)cyclohexane-1-carboxylic acid] | < 500 | < 20000 |
| Nc1ncccc1-c1nc2ccc(-c3ccccc3)nc2n1-c1ccc(C(=O)N2CCC(C(=O)O)CC2)nc1 [Compound I-22, 1-(5-(2-(2-aminopyridin-3-yl)-5-phenyl-3H-imidazo[4,5-b]pyridin-3-yl)picolinoyl)piperidine-4-carboxylic acid] | ≥ 2000 | 20000 to 80000 |
| Cc1nc(CN(C)[C@H]2CC[C@@H](C(=O)O)CC2)ccc1-n1c(-c2cccnc2N)nc2ccc(-c3ccccc3)nc21 [Compound I-184] | 500 to 2000 | < 20000 |
| Nc1ncccc1-c1nc2ccc(-c3ccccc3)nc2n1-c1ccc(C(=O)N[C@H]2CC[C@@H](C(=O)O)CC2)nc1 [Compound I-18, (1s,4s)-4-(5-(2-(2-aminopyridin-3-yl)-5-phenyl-3H-imidazo[4,5-b]pyridin-3-yl)picolinamido)cyclohexane-1-carboxylic acid] | ≥ 2000 | < 20000 |
| Nc1ncccc1-c1nc2ccc(-c3ccccc3)nc2n1-c1ccc(N2CCC(C(=O)O)C2)nc1 (stereo not shown) [Compound I-25, 1-(5-(2-(2-aminopyridin-3-yl)-5-phenyl-3H-imidazo[4,5-b]pyridin-3-yl)pyridin-2-yl)pyrrolidine-3-carboxylic acid] | 500 to 2000 | < 20000 |
| Nc1ncccc1-c1nc2ccc(-c3ccccc3)nc2n1-c1ccc(C2CN(C[C@H]3CC[C@@H](C(=O)O)CC3)C2)c(F)c1 [Compound I-63, (1s,4s)-4-((3-(4-(2-(2-aminopyridin-3-yl)-5-phenyl-3H-imidazo[4,5-b]pyridin-3-yl)-2-fluorophenyl)azetidin-1-yl)methyl)cyclohexane-1-carboxylic acid] | 500 to 2000 | < 20000 |
| CC1(C)C[C@H](CN2CC(c3ccc(-n4c(-c5cccnc5N)nc5ccc(-c6ccccc6)nc54)cc3)C2)CC[C@@H]1C(=O)O [Compound I-70, (1S,4R)-4-((3-(4-(2-(2-aminopyridin-3-yl)-5-phenyl-3H-imidazo[4,5-b]pyridin-3-yl)phenyl)azetidin-1-yl)methyl)-2,2-dimethylcyclohexane-1-carboxylic acid] | < 500 | < 20000 |
| CNC(=O)[C@H]1CC[C@H](N(C)Cc2ccc(-n3c(-c4cccnc4N)nc4ccc(-c5ccccc5)nc43)cc2)CC1 [Compound I-186, trans-4-((4-(2-(2-aminopyridin-3-yl)-5-phenyl-3H-imidazo[4,5-b]pyridin-3-yl)benzyl)(methyl)amino)-N-methylcyclohexane-1-carboxamide] | ≥ 2000 | < 20000 |
| Nc1ncccc1-c1nc2ccc(-c3ccccc3)nc2n1-c1ccc(C2CN(CC3CCC(C(=O)O)CC3)C2)nc1 (stereo not shown) [Compound I-64, 4-((3-(5-(2-(2-aminopyridin-3-yl)-5-phenyl-3H-imidazo[4,5-b]pyridin-3-yl)pyridin-2-yl)azetidin-1-yl)methyl)cyclohexane-1-carboxylic acid] | ≥ 2000 | < 20000 |
| Nc1ncccc1-c1nc2ccc(-n3cccn3)cc2n1-c1ccc(C2CN(C[C@H]3CC[C@H](C(=O)O)CC3)C2)cc1 [Compound I-72, (1r,4r)-4-((3-(4-(2-(2-aminopyridin-3-yl)-6-(1H-pyrazol-1-yl)-1H-benzo[d]imidazol-1-yl)phenyl)azetidin-1-yl)methyl)cyclohexane-1-carboxylic acid] | ≥ 2000 | < 20000 |
| Cc1cc(NC(=O)[C@H]2CC[C@H](C(=O)O)CC2)ccc1-n1c(-c2cccnc2N)nc2ccc(-c3ccccc3)nc21 [Compound I-102, (1r,4r)-4-((4-(2-(2-aminopyridin-3-yl)-5-phenyl-3H-imidazo[4,5-b]pyridin-3-yl)-3-methylphenyl)carbamoyl)cyclohexane-1-carboxylic acid] | 500 to 2000 | < 20000 |
